Experimental data published in US6017958A, “Method of treating malignant tumors with thyroxine analogues having no significant hormonal activity” (Octamer, Inc., priority 1997, dated 2000).

What was measured:
[1] = tested on: microtubule protein (MTP); assay: Microtubule protein (MTP) polymerization optical test; type: biochemical, bovine or rabbit; details: for Percent inhibition of initial velocity of microtubule assembly: 10 μM, 1 mM GTP, 37° C.
Experimental: Preparation of MTP and an optical test for polymerization was adopted from published methods, Gaskin, et al., 1974, "Turbidimetric studies of the in vitro assembly and disassembly of porcine neurotubules", J. Mol. Biol. 89:737-758; Tiwari, et al., 1993, "A pH and temperature-dependent cycling method that doubles the yield of microtubule protein", Anal. Biochem. 215:96-103. Bovine or rabbit brain was homogenized in an equal volume of ice cold buffer containing 100 mM Pipes/K^+ (pH 7.4), 4 mM EGTA, 1 mM MgCl2, 0.5 mM DTT and 0.1 mM PMSF, and centrifuged at 39,000 g for 1 hour at 4° C. To the supernatant, DMSO (8% final concentration) and GTP (1 mM final concentration) were added, followed by incubation at 37° C. for 30 minutes. Microtubules were pelleted at 100,000 g at 37° C for 30 minutes. The pellets were incubated on ice for 15 minutes, followed by resuspension in ice cold PEM buffer (100 mM Pipes/K+(pH 6.9), 1 mM EGTA, 1 mM MgCl2). This warm polymerization and cold depolymerization cycle was repeated once more and the cold, resuspended monomeric MTP (8-10 mg/ml protein) was used for the optical test for polymerization kinetics. Both rabbit or bovine brain yielded identical MTP preparations.
The composition of the optical test is described in the legends of Figures and Table 12. The polymerization reaction was started by the addition of 100 μl of MTP solution (equivalent to 0.8-1.0 mg protein) and initial linear rates of increase in absorbance at 350 nm followed and recorded at 37° C. (see FIG. 1) in a Perkin-Elmer 552 double beam spectrophotometer, equipped with a thermostatically controlled cuvette holder.
[…] Microtubule assembly at 37° C. was monitored at λ=350 nm and initial velocities were calculated as mA350 /min. […] The values are averages of duplicate assays.

[2] = tested on: E-ras 20 cells (E-ras transformed bovine endothelial cells); assay: Tumorigenicity of pretreated E-ras 20 cells in athymic nude mice; type: in vivo, bovine cells in nude mice; details: 10 μM, 4 days pretreatment; tumor size at day 25
Experimental: E-ras transformed bovine endothelial cells (Bauer et al., 1996, Intl. J. Oncology 8:239-252) were exposed to 10 μM DIME for […]. The DIME-treated cells (10^5 or 10^6 cells/100 μL) were injected subcutaneously into nude mice and tumor progression followed for 25 days.
Tumorigenicity of E-ras 20 Cells in athymic nude mice was assayed as described previously. Bauer et al., 1996, "Modification of growth related enzymatic pathways and apparent loss of tumorigenicity of a ras-transformed bovine endothelial cell line by treatment with 5-iodo-6-amino-1,2-benzopyrone (INH2 BP)" Intl. J. Oncol. 8:239-252. The in vivo antitumorigenic action of DIME was assayed on athymic mice inoculated with 10^6 MDA-MB-231 cells, as in the tumorgenicity assay. In about 10-14 days when subcutaneous tumors appeared, DIME treatment consisting of p.o. administration of DIME suspension (once a day) was commenced and continued for 28-32 days as reported, Kun et al., 1996, "Induction of tumor apotosis by methyl-3,5-diiodo-4-(4'-methoxyphenoxy) benzoate (DIME)", Abstract No. 102, Int. J. Oncol. 9:supplement 829.
The structural specificity of DIME and its homologs and analogs can be assessed by examining Table 7 and Table 8. We have prepared 17 novel structural analogs of DIME and compared the antitumor activity of 10 of the compounds (Table 8) which appears sufficient to draw some general conclusions. The biological assay chosen was the determination of antitumorigenic action of the drugs on the in vivo tumorigenicity of E-ras cells in nude mice, Bauer et al., 1996, "Modification of growth related enzymatic pathways and apparent loss of tumorigenicity of a ras-transformed bovine endothelial cell line by treatment with 5-iodo-6-amino-1,2-benzopyrone (INH2 BP)" Intl. J. Oncol. 8:239-252. E-ras 20 cells (10^5 or 10^6) were incubated with 10 μM DIME or analogs for 4 days, then 10^5 and 10^6 cells were inoculated subcutaneously into nude mice (5 per test) and rates of tumor formation quantitated by direct tumor volume measurements (cf. 2). […] Identical antitumorigenic tests were performed with nine DIME analogs and taking the effect of DIME as 100% (comparing tumor sizes at day 25) the antitumor efficacy was calculated as percent of DIME activity. […] Results summarized in Table 8 illustrate that substituents in R1 and R2 determine antitumor efficacy.
The efficacy of DIME analogs on in vivo tumorigenicity of Eras 20 cells i
athymic mice was compared to that of DIME (compound 1) which was taken as
100, determining the size of tumor reduction at day 25. Pretreatment with
DIME or its analogs (Table 7) was with 10 μM for 4 days prior to s.c.

[3] = tested on: seven human cancer cell lines; assay: Cytocidal action on human cancer cell lines; type: cell-based
Experimental: Seven human cancer cell lines were obtained from the American Tissue Culture Collection (Rockville, Md.) and maintained in the recommended growth media. Cells were seeded into wells (2 cm^2) at a density of 2×10^4 cells/cm^2. Various concentrations of Compounds 1-13 were added to the media at the time of seeding.
The cultures were incubated for 72 hours at 37° C. (5% CO2 atmosphere). Following incubation, cells were detached with trypsin and counted in a hemocytometer.

MDA-MB-231 cells = assay: Immunocytochemistry of mitotic spindle and spindle-associated proteins; type: cell-based, human; details: 100 nM, 18 hrs; data not shown
Experimental: Cells were fixed in methanol at -20° C. for 5 min. The primary antibody was mouse monoclonal anti-beta tubulin (Amersham) and secondary antibody from goat, conjugated to fluorescein isothiocyanate from Cappel (Durham, N.C., USA). The DNA of nuclei was stained by 10 min of incubation in 0.05 μg/ml 4'-6-diamidono-2-phenylindole (DAPI). Stained cells were viewed with either a Zeiss 40xPlan-Neofluar or a Nikon 60xPlanApo objective. For classification of cells in the mitotic phase, prophase and metaphase were combined into a single category, because it was difficult to distinguish late prophase from metaphase.
In preliminary studies (data not shown) we have also studied the behavior of certain spindle-associated proteins by the immunocytologic technique.

MDA-MD-231 cells = assay: Inhibition of tumor cell growth; type: cell-based, human; details: 3 days; for Cells (growth): control 0.95
Experimental: MDA-MD-231 human cancer cells were obtained from the American Tissue Culture Collection (Rockville, Md.) and maintained in the recommended growth media. Cells were grown in the presence of various concentrations of Compounds 1 and 14 for 3 days at 37° C.

protein phosphatase 2A = assay: Activation of purified protein phosphatase 2A (32P-histone H1 dephosphorylation); type: biochemical; details: 50 μM
Experimental: 2.1 Preparation of ^32 P-labeled Histone H1 Substrate
Histone H1 was phosphorylated with protein kinase C (Upstate Biotechnology,Inc., Lake Placid, N.Y.) in a volume of 100 μL according to standard protocols. Alternatively, histone H1 was phosphorylated with p34cdc2 kinase purified from rapidly multiplying Mytilus Edulis embryos at 4-8 stage after isolation with the p^13 -Suc agarose technique (Smythe and Newport, 1992, "Coupling of Mitosis to the Completion of S Phase in Xenopus Occurs via Modulation of the Tyrosine Kinase that Phosphorylates p34cdc2," Cell 68:787-797).
125 ng purified protein phosphatase 2A (Upstate Biotechnology, Inc., Lake Placid, N.Y.; Usui et al., 1983, J. Biol. Chem. 258:10455-10463) was preincubated with thyroxine analogue (50 μM) in buffer (20 mM MOPS or Tris, pH 7.5, 1 mM MgCl2, 60 μM β-mercaptoethanol) for 10 min. at 23° C. Total reaction volume was 20 μL. ^32 P-labeled histone H1 substrate (10 μg, 10^5 cpm) was added and the dephosphorylation reaction allowed to proceed for 5 min. at 23° C., after which time the reaction was quenched by addition of 2 μL Laeimli buffer. An identical reaction containing 125 ng untreated protein phosphatase 2A was run as a control.
Phosphorylated and dephosphorylated histone H1 were separated by gel electrophoresis (12% SDS-PAGE), bands containing phosphorylated histone H1 excised and assayed for ^32 P activity via scintillation counter.
The velocity of dephosphorylation in 5 min. is an indication of the initial velocity (Vinit) of the dephosphorylation reaction.

Row | SMILES | Percent inhibition of initial velocity of microtubule assembly [1] [%] | Efficacy (inhibition of E-ras 20 tumorigenicity, DIME = 100) [2] [%] | also measured
1 | CCOC(=O)c1cc(I)c(Oc2ccc(OC)cc2)c(I)c1 [Compound 5, Ethyl 3,5-diiodo-4-(4'-methoxyphenoxy)benzoate] | 35 | 83 | activity in cellular assays and in vivo [3]: completely inactive
2 | COc1ccc(Oc2c(I)cc(C(=O)O)cc2I)cc1 [Compound 6, 3,5-diiodo-4-(4'-methoxyphenoxy)benzoic acid] | 0 | 45 | inhibitory effect on MTP polymerization ([1]; methyl ester replaced): completely abolishes the inhibitory effect on MTP polymerization
3 | CNC(=O)c1cc(I)c(Oc2ccc(OC)cc2)c(I)c1 [Compound 8, 3,5-diiodo-4-(4'-methoxyphenoxy)-N-methyl benzamide] | – | 22 | –
4 | COc1ccc(Oc2c(I)cc(C(=O)N(C)C)cc2I)cc1 [Compound 9, 3,5-diiodo-4-(4'-methoxyphenoxy)-N,N-dimethyl benzamide] | 6 | 64 | –
5 | CCCCOc1ccc(Oc2c(I)cc(C(=O)OC)cc2I)cc1 [Compound 4, Methyl 3,5-diiodo-4-(4'-n-butoxyphenoxy)benzoate] | 8 | 4 | –
6 | COC(=O)c1cc(I)c(Oc2ccc(OC(F)(F)F)cc2)c(I)c1 [Compound 18] | 7 | – | –
7 | C=C1[C@@H](O)[C@@H]2O[C@]3(CC[C@H](/C=C/[C@@H](C)[C@@H]4CC(C)=C[C@@]5(O[C@H](C[C@@](C)(O)C(=O)O)CC[C@H]5O)O4)O3)CC[C@H]2O[C@@H]1[C@@H](O)C[C@H](C)[C@H]1O[C@@]2(CCCCO2)CC[C@H]1C [okadaic acid, reference compound] | – | – | cdc-2 kinase- and pp2a-spindle association (MDA-MB-231 cells): abolished only cdc-2 kinase- and pp2a-spindle association
8 | COC(=O)c1cc(I)c(Oc2ccc(O)cc2)c(I)c1 [Compound 10, Methyl 3,5-diiodo-4-(4'-hydroxyphenoxy) benzoate] | – | 14 | –
9 | COc1ccc(Oc2c(I)cc(C(N)=O)cc2I)cc1 [Compound 7, 3,5-diiodo-4-(4'-methoxyphenoxy)benzamide] | 43 | 53 | –
10 | COC(=O)c1cc(I)c(Oc2ccc(OC)cc2Cl)c(I)c1 [Compound 14, Methyl 3,5-diiodo-4-(2'-chloro-4'-methoxyphenoxy)benzoate] | – | – | Cells (growth) (MDA-MD-231 cells; 0.5 μM): 0.95 ×10^6; Cells (growth) (MDA-MD-231 cells; 1.0 μM): 0.71 ×10^6; Cells (growth) (MDA-MD-231 cells; 2.0 μM): 0.20 ×10^6; inhibitory activity as compared to DIME (MDA-MD-231 cells): about 25%
11 | CCOc1ccc(Oc2c(I)cc(C(=O)OC)cc2I)cc1 [Compound 2, Methyl 3,5-diiodo-4-(4'-ethoxyphenoxy)benzoate] | 76 | 93 | Emax ([3]; 72 hours, human cancer cells, read-out: maximal cytocidal activity as compared to DIME): 25 to 30%
12 | CCCOc1ccc(Oc2c(I)cc(C(=O)OC)cc2I)cc1 [Compound 3, Methyl 3,5-diiodo-4-(4'-n-propoxyphenoxy)benzoate] | – | 44 | activation of protein phosphatase 2A (protein phosphatase 2A): did not activate; Activity/5 min (initial velocity of histone H1 dephosphorylation) (protein phosphatase 2A; 10 min preincubation, control 10217 ± 1708, average of three samples): 7521 ± 1562 cpm; activity in cellular assays and in vivo [3]: completely inactive
